Values joined by “and” are separate entries in the source; they are usually repeats but may differ in a detail not shown here. Equal entries are not always repeated. Structures can show the parent of a compound that is named as a salt. Where two headings read alike, the source gives them in different places.
Key:
[1] = target: BRD4 BD1 protein (Homo sapiens (Human), UniProt O60885); test: Fluorescence polarization binding affinity (Ki) with BRD4 BD1 protein
[2] = test system: multiple myeloma MM.1S cell line; test: Cell viability (CCK-8), multiple myeloma MM.1S; assay type: cell-based; conditions: Homo sapiens, MM1.S, 96 h, MM.1S cells, 4 days, CCK-8, 50% inhibition of cell growth
Procedure: 3. Determination of cell viability of the compound
The sample to be tested was dissolved with 100% dimethyl sulfoxide to prepare a 20 mM stock solution of the compound, which was diluted with 100% dimethyl sulfoxide to the highest compound concentration required for the experiment (2.5 mM).
First, 145 uL of a complete cell culture medium was added to wells B1-G1 of a 96-well flat-bottomed tansparent cell culture plate, and 100 uL of the complete medium was added to wells B2-G12, respectively. Then, 5 uL of the 2.5 mM solution of the compound was added to wells B1-D1 and E1-G1 respectively, and then diluted gradiently by 3-folds to B12-D12 and E12-G12 in sequence. Finally, 50 uL of the solution of the cells to be tested was added to each well, with about 3000-5000 cells per well, and a total volume of 150 uL per well.
In the experiment, in addition to the tested compound, two other control groups were set up: 1) a control group adding the cells and the complete medium, but without adding the compound; 2) a control group adding the complete medium only, without adding the cells and the compound. The 96-well plate was placed in a 37° C. cell culture incubator containing 5% carbon dioxide for 4 days, added with 15 uL of a CCK-8 reagent per well, and then incubated at 37° C. for 2-4 hours. The 96-well plate was read on a TECAN microplate reader, and the absorbance value at 450 nm wavelength was taken.
The effect of different concentrations of the compound on cell viability was calculated by the following equation: [absorption value of the experimental group−absorption value of pure cell culture medium without the cells or the compound]/[absorption value of the control group with the tumor cells but no testing compound−absorption value of pure cell culture medium without the cell or the compound]×100%.
The above data were precessed by software, and the IC50 value was the concentration of the compound corresponding to the 50% inhibition rate of cell growth.
Based on the above test method of the compound on cell viability, a variety of […] cancer cell lines were tested, using multiple myeloma MM.1S, breast cancer MDA-MB-231 and leukemia MV4-11 cell lines as exemples. Using this test method, the IC50 values of partial compounds in the examples of the present invention measured in multiple myeloma MM.1S, breast cancer MDA-MB-231 cell lines and leukemia MV4-11 cell lines were shown in Table 2.

[3] = target: BRD4 BD2 protein (Homo sapiens (Human), UniProt O60885); test: Fluorescence polarization binding affinity (Ki) with BRD4 BD2 protein
[4] = fluorescence polarization, Ki calculated from IC50

SMILES: Cc1nnn2c1-c1ccc(-c3cnn(C)c3)cc1C(Nc1ccc(CCO)cc1)CC2 (stereo not drawn) [LB24, 2-(4-((1-methyl-9-(1-methyl-1H-pyrazol-4-yl)-6,7-dihydro-5H-benzo[c][1,2,3]triazolo[1,5-a]azepin-7-yl)amino)phenyl)ethan-1-ol]
- Ki [1, 4]: 64.5 nM
- IC50 [2]: 51.7 nM
- Ki [3, 4]: 22.4 nM

SMILES: COc1ccc(NC2CCc3onc(C)c3-c3ccc(OC)cc32)cc1 (stereo not drawn) [FA01, 8-methoxy-N-(4-methoxyphenyl)-1-methyl-5,6-dihydro-4H-benzo[6,7]cyclohepta[1,2-d]isoxazol-6-amine]
- Ki [1, 4]: 169 nM
- IC50 [2]: 559 nM
- Ki [3, 4]: 105 nM

SMILES: CCN1CC=C(c2ccc3c(c2)C(Nc2cccc(OC)c2)CCn2nnc(C)c2-3)CC1 (stereo not drawn) [BH33, 9-(1-ethyl-1,2,3,6-tetrahydropyridin-4-yl)-N-(3-methoxyphenyl)-1-methyl-6,7-dihydro-5H-benzo[c][1,2,3]triazolo[1,5-a]azepin-7-amine 2,2,2-trifluoroacetate]
- Ki [1, 4]: 1780 nM and 693 nM
- IC50 [2]: 187 nM
- Ki [3, 4]: 38.6 nM and 27.9 nM

SMILES: Cc1nnn2c1-c1ccc(-c3cn[nH]c3)cc1C(Nc1ccc(Cl)cc1)CC2 (stereo not drawn) [RB07, N-(4-chlorophenyl)-1-methyl-9-(1H-pyrazol-4-yl)-6,7-dihydro-5H-benzo[c][1,2,3]triazolo[1,5-a]azepin-7-amine]
- Ki [1, 4]: 51.2 nM
- IC50 [2]: 13.6 nM
- Ki [3, 4]: 19.8 nM

SMILES: Cc1noc2c1-c1ccc(-c3cn[nH]c3)cc1C(Nc1ccc(Cl)cc1)CC2 (stereo not drawn) [LA108, N-(4-chlorophenyl)-1-methyl-8-(1H-pyrazol-4-yl)-5,6-dihydro-4H-benzo[6,7]cyclohepta[1,2-d]isoxazol-6-amine]
- Ki [1, 4]: 80.5 nM
- IC50 [2]: 30.2 nM
- Ki [3, 4]: 31.7 nM

SMILES: COC(=O)Cc1ccc(NC2CCn3nnc(C)c3-c3ccc(-c4cnn(C)c4)cc32)cc1 (stereo not drawn) [LB38, methyl 2-(4-((1-methyl-9-(1-methyl-1H-pyrazol-4-yl)-6,7-dihydro-5H-benzo[c][1,2,3]triazolo[1,5-a]azepin-7-yl)amino)phenyl)acetate]
- IC50 [2]: 32.9 nM

SMILES: Cc1nnn2c1-c1ccc(-c3cnn(C)c3)cc1C(Nc1cccc(CCO)c1)CC2 (stereo not drawn) [LB71, 2-(3-((1-methyl-9-(1-methyl-1H-pyrazol-4-yl)-6,7-dihydro-5H-benzo[c][1,2,3]triazolo[1,5-a]azepin-7-yl)amino)phenyl)ethanol]
- IC50 [2]: 151 nM

SMILES: Cc1nnn2c1-c1ccc(C3=CCN(C4CCCC4)CC3)cc1C(Nc1ccc(F)c(Cl)c1)CC2 (stereo not drawn) [WYA10, N-(3-chloro-4-fluorophenyl)-9-(1-cyclopentyl-1,2,3,6-tetrahydropyridin-4-yl)-1-methyl-6,7-dihydro-5H-benzo[c][1,2,3]triazolo[1,5-a]azepin-7-amine 2,2,2-trifluoroacetate]
- Ki [1, 4]: 719 nM
- Ki [3, 4]: 20.7 nM and 47.4 nM

SMILES: Cc1nnn2c1-c1ccc(C3=CCNCC3)cc1C(Nc1cccc(C#N)c1)CC2 (stereo not drawn) [LC75, 3-((1-methyl-9-(1,2,3,6-tetrahydropyridin-4-yl)-6,7-dihydro-5H-benzo[c][1,2,3]triazolo[1,5-a]azepin-7-yl)amino)benzonitrile 2,2,2-trifluoroacetate]
- Ki [1, 4]: 2290 nM
- Ki [3, 4]: 116 nM

SMILES: Cc1nnn2c1-c1ccc(C3=CCN(C(C)C)CC3)cc1C(Nc1cccc(C#N)c1)CC2 (stereo not drawn) [BI34, 3-((9-(1-isopropyl-1,2,3,6-tetrahydropyridin-4-yl)-1-methyl-6,7-dihydro-5H-benzo[c][1,2,3]triazolo[1,5-a]azepine7-yl)amino)benzonitrile 2,2,2-trifluoroacetate]
- Ki [1, 4]: 4200 nM
- Ki [3, 4]: 291 nM

SMILES: CCN1CC=C(c2ccc3c(c2)C(Nc2ccc(F)c(Cl)c2)CCn2nnc(C)c2-3)CC1 (stereo not drawn) [RD121, N-(3-chloro-4-fluorophenyl)-9-(1-ethyl-1,2,3,6-tetrahydropyridin-4-yl)-1-methyl-6,7-dihydro-5H-benzo[c][1,2,3]triazolo[1,5-a]azepin-7-amine 2,2,2-trifluoroacetate]
- Ki [1]: 788 nM
- Ki [3]: 31.8 nM

SMILES: CCN1CC=C(c2ccc3c(c2)C(Nc2cccc(Cl)c2F)CCn2nnc(C)c2-3)CC1 (stereo not drawn) [RD115, N-(3-chloro-2-fluorophenyl)-9-(1-ethyl-1,2,3,6-tetrahydropyridin-4-yl)-1-methyl-6,7-dihydro-5H-benzo[c][1,2,3]triazolo[1,5-a]azepin-7-amine 2,2,2-trifluoroacetate]
- Ki [1, 4]: 1130 nM
- Ki [3, 4]: 59.1 nM

SMILES: Cc1nnn2c1-c1ccc(C3=CCNCC3)cc1C(Nc1ccc(OCCO)cc1)CC2 (stereo not drawn) [LC133, 2-(4-((1-methyl-9-(1,2,3,6-tetrahydropyridin-4-yl)-6,7-dihydro-5H-benzo[c][1,2,3]triazolo[1,5-a]azepin-7-yl)amino)phenoxy)ethan-1-ol 2,2,2-trifluoroacetate]
- Ki [1, 4]: 2190 nM
- Ki [3, 4]: 207 nM

SMILES: Cc1nnn2c1-c1ccc(C3CCN(C)CC3)cc1C(Nc1ccc(Cl)cc1)CC2 (stereo not drawn) [BF178, N-(4-chlorophenyl)-1-methyl-9-(1-methylpiperidin-4-yl)-6,7-dihydro-5H-benzo[c][1,2,3]triazolo[1,5-a]azepin-7-amine]
- Ki [1, 4]: > 20000 nM
- Ki [3, 4]: > 20000 nM

SMILES: Cc1nnn2c1-c1ccc(C3=CCN(C4CCCC4)CC3)cc1C(Nc1cccc(Cl)c1)CC2 (stereo not drawn) [BH107, N-(3-chlorophenyl)-9-(1-cyclopentyl-1,2,3,6-tetrahydropyridin-4-yl)-1-methyl-6,7-dihydro-5H-benzo[c][1,2,3]triazolo[1,5-a]azepin-7-amine 2,2,2-trifluoroacetate]
- Ki [1, 4]: 1740 nM
- Ki [3, 4]: 17.6 nM

SMILES: Cc1nnn2c1-c1ccc(C3=CCN(C4CCCCC4)CC3)cc1C(Nc1cccc(S(C)(=O)=O)c1)CC2 (stereo not drawn) [BI57, 9-(1-cyclohexyl-1,2,3,6-tetrahydropyridin-4-yl)-1-methyl-N-(3-(methylsulfonyl)phenyl)-6,7-dihydro-5H-benzo[c][1,2,3]triazolo[1,5-a]azepin-7-amine 2,2,2-trifluoroacetate]
- Ki [1, 4]: 3610 nM
- Ki [3, 4]: 147 nM

SMILES: Cc1nnn2c1-c1ccc(C3=CCNCC3)cc1C(Nc1ccccc1CC#N)CC2 (stereo not drawn) [RC82, 2-(2-((1-methyl-9-(1,2,3,6-tetrahydropyridin-4-yl)-6,7-dihydro-5H-benzo[c][1,2,3]triazolo[1,5-a]azepin-7-yl)amino)phenyl) acetonitrile 2,2,2-trifluoroacetate]
- Ki [1, 4]: 2370 nM
- Ki [3, 4]: 1520 nM

SMILES: Cc1nnn2c1-c1ccc(C3=CCN(C4CCC4)CC3)cc1C(Nc1cccc(Cl)c1F)CC2 (stereo not drawn) [RE30, N-(3-chloro-2-fluorophenyl)-9-(1-cyclobutyl-1,2,3,6-tetrahydropyridin-4-yl)-1-methyl-6,7-dihydro-5H-benzo[c][1,2,3]triazolo[1,5-a]azepin-7-amine 2,2,2-trifluoroacetate]
- Ki [1]: 413 nM
- Ki [3]: 30.2 nM

SMILES: Cc1nnn2c1-c1ccc(C3=CCNCC3)cc1C(Nc1ccc(O)cc1)CC2 (stereo not drawn) [LC117, 4-((1-methyl-9-(1,2,3,6-tetrahydropyridin-4-yl)-6,7-dihydro-5H-benzo[c][1,2,3]triazolo[1,5-a]azepin-7-yl)amino)phenol 2,2,2-trifluoroacetate]
- Ki [1, 4]: 2370 nM
- Ki [3, 4]: 116 nM

SMILES: Cc1nnn2c1-c1ccc(C3=CCNCC3)cc1C(Nc1cccc(Cl)c1F)CC2 (stereo not drawn) [LC190, N-(3-chloro-2-fluorophenyl)-1-methyl-9-(1,2,3,6-tetrahydropyridin-4-yl)-6,7-dihydro-5H-benzo[c][1,2,3]triazolo[1,5-a]azepin-7-amine 2,2,2-trifluoroacetate]
- Ki [1, 4]: 592 nM
- Ki [3, 4]: 60 nM

SMILES: Cc1nnn2c1-c1ccc(-c3cnn(C)c3)cc1C(N(C=O)c1cccc(Cl)c1)CC2 (stereo not drawn) [LC174, N-(3-chlorophenyl)-N-(1-methyl-9-(1-methyl-1H-pyrazol-4-yl)-6,7-dihydro-5H-benzo[c][1,2,3]triazolo[1,5-a]azepin-7-yl)formamide]
- Ki [1, 4]: 949 nM
- Ki [3, 4]: 623 nM

SMILES: Cc1nnn2c1-c1ccc(C3=CCN(C(C)C)CC3)cc1C(Nc1cc(Cl)ccc1F)CC2 (stereo not drawn) [BI68, N-(5-chloro-2-fluorophenyl)-9-(1-isopropyl-1,2,3,6-tetrahydropyridin-4-yl)-1-methyl-6,7-dihydro-5H-benzo[c][1,2,3]triazolo[1,5-a]azepin-7-amine 2,2,2-trifluoroacetate]
- Ki [1, 4]: 1110 nM
- Ki [3, 4]: 45.1 nM

SMILES: Cc1nnn2c1-c1ccc(C3CCNCC3)cc1C(Nc1ccc(Cl)cc1)CC2 (stereo not drawn) [BF169, N-(4-chlorophenyl)-1-methyl-9-(piperidin-4-yl)-6,7-dihydro-5H-benzo[c][1,2,3]triazolo[1,5-a]azepin-7-amine hydrochloride]
- Ki [1, 4]: > 20000 nM
- Ki [3, 4]: 661 nM

SMILES: CC(=O)N1CC=C(c2ccc3c(c2)C(N(C(C)=O)c2cccc(Cl)c2)CCn2nnc(C)c2-3)CC1 (stereo not drawn) [LD13]
- Ki [1]: 944 nM
- Ki [3]: 1740 nM

Source: US12286435B2, “Compound having benzo seven-membered ring structure, preparation method therefor, and use thereof” (BIONNA (BEIJING) MEDICAL TECHNOLOGY CO., LTD., priority 2019, dated 2025)
